Source: patent publication US10167262B2, “Herbicidal substituted 3-arylpyrazoles” (FMC CORPORATION, priority 2014, dated 2019)

Legend:
Format in all cases: in vivo
kochia (Kochia scoparia) = experiment: Test C postemergence greenhouse test, plant response rating 0-100; settings: for Plant response rating, Kochia: scale 0 to 100
Outline: (§1)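 Plants rated visually 0 (no effect) to 100 (complete control) against untreated controls after 13 to 15 days in the greenhouse, dash indicating no result. Treatment was a postemergence application of formulated chemicals at the 1- to 4-leaf stage (2 to 18 cm), in pots of peat-vermiculite medium.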

wild oat (Avena fatua) = experiment: as above; settings: for Plant response rating, Oat, Wild: scale 0 to 100
Outline: as §1

[1] = test system: chickweed (common chickweed, Stellaria media); experiment: as above; settings: for Plant response rating, Chickweed: scale 0 to 100
Outline: as §1

[2] = test system: blackgrass (Alopecurus myosuroides); experiment: Test C pre-/postemergence greenhouse test, plant response rating 0-100
Outline: (§2)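 Scores run from 0, no effect, to 100, complete control, assigned by eye after treated plants and controls spent 13 to 15 days in a greenhouse. Soil-applied treatment went onto freshly sown seed in loam and sand; foliar treatment hit seedlings at the 1- to 4-leaf stage.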

[3] = test system: lambsquarters (Chenopodium album); experiment: as above
Outline: as §2

[4] = test system: johnsongrass (Sorghum halepense); experiment: as above
Outline: as §2

[5] = test system: yellow nutsedge (Cyperus esculentus); experiment: as above
Outline: as §2

[6] = test system: winter wheat (Triticum aestivum); experiment: as above
Outline: as §2

[7] = test system: giant foxtail (Setaria faberii); experiment: as above
Outline: as §2

[8] = test system: large (Lg) crabgrass (Digitaria sanguinalis); experiment: as above
Outline: as §2

soybean (Glycine max) = experiment: as above
Outline: as §2

[9] = test system: pigweed (Amaranthus retroflexus); experiment: as above
Outline: as §2

corn (Zea mays) = experiment: as above
Outline: as §2

[10] = test system: oilseed rape (Brassica napus); experiment: as above
Outline: as §2

[11] = Postemergence, 250 g ai/ha, scale 0 to 100
[12] = Postemergence, 500 g ai/ha, scale 0 to 100

## O=C(c1ccccc1)c1cn(S(=O)(=O)CC(F)(F)F)nc1-c1cc(Cl)cc(Cl)c1 [Compound 3]
Kochia (Kochia scoparia); 62 g ai/ha
  Plant response rating (0 to 100), Kochia: 80
Kochia (Kochia scoparia); 125 g ai/ha
  Plant response rating (0 to 100), Kochia: 85
Kochia (Kochia scoparia); 250 g ai/ha
  Plant response rating, Kochia: 85
Kochia (Kochia scoparia); 500 g ai/ha
  Plant response rating, Kochia: 85
Wild oat (Avena fatua); 62 g ai/ha
  Plant response rating (0 to 100), Oat, Wild: 0
Wild oat (Avena fatua); 125 g ai/ha
  Plant response rating (0 to 100), Oat, Wild: 0
Wild oat (Avena fatua); 250 g ai/ha
  Plant response rating, Oat, Wild: 0
Wild oat (Avena fatua); 500 g ai/ha
  Plant response rating, Oat, Wild: 0
[1]; 62 g ai/ha
  Plant response rating (0 to 100), Chickweed: 100
[1]; 125 g ai/ha
  Plant response rating (0 to 100), Chickweed: 100
[1]; 250 g ai/ha
  Plant response rating, Chickweed: 100
[1]; 500 g ai/ha
  Plant response rating, Chickweed: 100
[2]; Postemergence, 62 g ai/ha
  Plant response rating (0 to 100), Blackgrass: 0
[2]; Postemergence, 125 g ai/ha, scale 0 to 100
  Plant response rating, Blackgrass: 0
[2]; [11]
  Plant response rating, Blackgrass: 0
[2]; [12]
  Plant response rating, Blackgrass: 0
[2]; Preemergence, 62 g ai/ha
  Plant response rating, Blackgrass: 0
[2]; Preemergence, 125 g ai/ha
  Plant response rating, Blackgrass: 0
[2]; Preemergence, 250 g ai/ha
  Plant response rating, Blackgrass: 0
[2]; Preemergence, 500 g ai/ha
  Plant response rating, Blackgrass: 0
[3]; Postemergence, 62 g ai/ha
  Plant response rating (0 to 100), Lambsquarters: 55
[3]; [11]
  Plant response rating, Lambsquarters: 80
[3]; [12]
  Plant response rating, Lambsquarters: 100
[3]; Preemergence, 62 g ai/ha
  Plant response rating, Lambsquarters: 100
[3]; Preemergence, 125 g ai/ha
  Plant response rating, Lambsquarters: 100
[3]; Preemergence, 250 g ai/ha
  Plant response rating, Lambsquarters: 100
[3]; Preemergence, 500 g ai/ha
  Plant response rating, Lambsquarters: 100
[4]; Postemergence, 62 g ai/ha
  Plant response rating (0 to 100), Johnsongrass: 0
[4]; Postemergence, 125 g ai/ha
  Plant response rating (0 to 100), Johnsongrass: 0
[4]; [11]
  Plant response rating, Johnsongrass: 0
[4]; [12]
  Plant response rating, Johnsongrass: 0
[4]; Preemergence, 62 g ai/ha
  Plant response rating, Johnsongrass: 0
[4]; Preemergence, 125 g ai/ha
  Plant response rating, Johnsongrass: 0
[4]; Preemergence, 250 g ai/ha
  Plant response rating, Johnsongrass: 0
[4]; Preemergence, 500 g ai/ha
  Plant response rating, Johnsongrass: 0
[5]; Postemergence, 62 g ai/ha
  Plant response rating (0 to 100), Nutsedge, Yellow: 0
[5]; Postemergence, 125 g ai/ha
  Plant response rating (0 to 100), Nutsedge, Yellow: 0
[5]; [11]
  Plant response rating, Nutsedge, Yellow: 0
[5]; [12]
  Plant response rating, Nutsedge, Yellow: 0
[5]; Preemergence, 62 g ai/ha
  Plant response rating, Nutsedge, Yellow: 0
[5]; Preemergence, 125 g ai/ha
  Plant response rating, Nutsedge, Yellow: 0
[5]; Preemergence, 250 g ai/ha
  Plant response rating, Nutsedge, Yellow: 0
[5]; Preemergence, 500 g ai/ha
  Plant response rating, Nutsedge, Yellow: 0
[6]; Postemergence, 62 g ai/ha
  Plant response rating (0 to 100), Wheat: 0
[6]; Postemergence, 125 g ai/ha
  Plant response rating (0 to 100), Wheat: 0
[6]; [11]
  Plant response rating, Wheat: 0
[6]; [12]
  Plant response rating, Wheat: 0
[6]; Preemergence, 62 g ai/ha
  Plant response rating, Wheat: 0
[6]; Preemergence, 125 g ai/ha
  Plant response rating, Wheat: 0
[6]; Preemergence, 250 g ai/ha
  Plant response rating, Wheat: 0
[6]; Preemergence, 500 g ai/ha
  Plant response rating, Wheat: 0
[6]; Preemergence, 0 to 100 scale (0 no effect, 100 complete control), rate 500 g ai/ha
  Plant response rating, Wheat: 0
[7]; Postemergence, 62 g ai/ha
  Plant response rating (0 to 100), Foxtail, Giant: 0
[7]; Postemergence, 125 g ai/ha
  Plant response rating (0 to 100), Foxtail, Giant: 0
[7]; [11]
  Plant response rating, Foxtail, Giant: 0
[7]; [12]
  Plant response rating, Foxtail, Giant: 0
[7]; Preemergence, 62 g ai/ha
  Plant response rating, Foxtail, Giant: 0
[7]; Preemergence, 125 g ai/ha
  Plant response rating, Foxtail, Giant: 0
[7]; Preemergence, 250 g ai/ha
  Plant response rating, Foxtail, Giant: 0
[7]; Preemergence, 500 g ai/ha
  Plant response rating, Foxtail, Giant: 0
[8]; Postemergence, 62 g ai/ha
  Plant response rating (0 to 100), Crabgrass, Large: 0
[8]; Postemergence, 125 g ai/ha
  Plant response rating (0 to 100), Crabgrass, Large: 5
[8]; [11]
  Plant response rating, Crabgrass, Large: 5
[8]; [12]
  Plant response rating, Crabgrass, Large: 5
[8]; Preemergence, 62 g ai/ha
  Plant response rating, Crabgrass, Large: 0
[8]; Preemergence, 125 g ai/ha
  Plant response rating, Crabgrass, Large: 0
[8]; Preemergence, 250 g ai/ha
  Plant response rating, Crabgrass, Large: 0
[8]; Preemergence, 500 g ai/ha
  Plant response rating, Crabgrass, Large: 0
Soybean (Glycine max); Postemergence, 62 g ai/ha
  Plant response rating (0 to 100), Soybean: 0
Soybean (Glycine max); Postemergence, 125 g ai/ha
  Plant response rating (0 to 100), Soybean: 0
Soybean (Glycine max); [11]
  Plant response rating, Soybean: 0
Soybean (Glycine max); [12]
  Plant response rating, Soybean: 0
Soybean (Glycine max); Preemergence, 62 g ai/ha
  Plant response rating, Soybean: 0
Soybean (Glycine max); Preemergence, 125 g ai/ha
  Plant response rating, Soybean: 0
Soybean (Glycine max); Preemergence, 250 g ai/ha
  Plant response rating, Soybean: 0
Soybean (Glycine max); Preemergence, 500 g ai/ha
  Plant response rating, Soybean: 0
Soybean (Glycine max); Preemergence, 0 to 100 scale (0 no effect, 100 complete control), rate 500 g ai/ha per head r3, sub-head of this section not shown
  Plant response rating, Soybean: 0
[9]; Postemergence, 62 g ai/ha
  Plant response rating (0 to 100), Pigweed: 85
[9]; Postemergence, 125 g ai/ha
  Plant response rating (0 to 100), Pigweed: 95
[9]; [11]
  Plant response rating, Pigweed: 100
[9]; Preemergence, 62 g ai/ha
  Plant response rating, Pigweed: 30
[9]; Preemergence, 125 g ai/ha
  Plant response rating, Pigweed: 100
[9]; Preemergence, 250 g ai/ha
  Plant response rating, Pigweed: 100
[9]; Preemergence, 500 g ai/ha
  Plant response rating, Pigweed: 100
Corn (Zea mays); Postemergence, 62 g ai/ha
  Plant response rating (0 to 100), Corn: 0
Corn (Zea mays); Postemergence, 125 g ai/ha
  Plant response rating (0 to 100), Corn: 5
Corn (Zea mays); [11]
  Plant response rating, Corn: 5
Corn (Zea mays); [12]
  Plant response rating, Corn: 5
Corn (Zea mays); Preemergence, 62 g ai/ha
  Plant response rating, Corn: 0
Corn (Zea mays); Preemergence, 125 g ai/ha
  Plant response rating, Corn: 0
Corn (Zea mays); Preemergence, 250 g ai/ha
  Plant response rating, Corn: 0
Corn (Zea mays); Preemergence, 500 g ai/ha
  Plant response rating, Corn: 0
[10]; Postemergence, 62 g ai/ha
  Plant response rating (0 to 100), Oilseed Rape: 60
[10]; Postemergence, 125 g ai/ha
  Plant response rating (0 to 100), Oilseed Rape: 70
[10]; [11]
  Plant response rating, Oilseed Rape: 80
[10]; [12]
  Plant response rating, Oilseed Rape: 85
[10]; Preemergence, 62 g ai/ha
  Plant response rating, Oilseed Rape: 40
[10]; Preemergence, 125 g ai/ha
  Plant response rating, Oilseed Rape: 80
[10]; Preemergence, 250 g ai/ha
  Plant response rating, Oilseed Rape: 80
[10]; Preemergence, 500 g ai/ha
  Plant response rating, Oilseed Rape: 100
